Test results from paper PMC7179653 (Antimicrobial Agents and Chemotherapy, 2020).
Where two headings read alike, the source gives them in different places.

Experiments:
[1] = MAD study: nacubactam pharmacokinetics, multiple doses and single dose alone or with meropenem; type: in vivo, human; details: for CL renal at 7 days / CL renal: plasma and urine; for AUC(0-t): read-out: AUC0–8h; for Tmax at 7 days: day 7, n = 6, median (range)
Description: The MAD study consisted of three parts (Fig. 1). […] Participants were enrolled in two sequential cohorts (cohort 1, followed by cohort 2). […] Participants were also enrolled in two sequential cohorts (cohort 3, followed by cohort 4). […] A washout period of approximately 24 h between treatments was provided. Study treatments were administered as 30-min (SAD study) or 90-min (MAD study) i.v. infusions, the latter to investigate the pharmacokinetics using a longer infusion time, which is commonly used to increase the time above the MIC of β-lactams ([15]). The choice of a 90-min infusion time for the MAD study was dictated by the stability and toxicology data available at the time the study was being designed. […] Safety assessments included monitoring of AEs, laboratory safety tests (hematology, serum chemistry, and urinalysis), 12-lead ECG (discrete recordings and 24-h Holter recording), and vital signs (blood pressure, pulse rate, and body temperature). In the SAD study, safety assessments were performed predose at screening, at day 1, postdose periodically on days 1, 2, and 7 (follow-up), and at early withdrawal, if relevant. […] In the MAD study, safety assessments were done predose at screening, at day 2, postdose periodically on days 1, 2, 4, 7, and 8, on days 13 to 15 (follow-up), and at early withdrawal, if relevant. […] On all other days, a single predose sample was collected for pharmacokinetic evaluation prior to the morning infusion. Blood was collected into lithium-heparin tubes and stored at a nominal –80°C temperature until analysis.

[2] = parameters: method as in unpublished data; details: ref unpublished data; cited from earlier work
[3] = MAD part 3, single dose (day 1 or 2) nacubactam 2,000 mg alone, geometric mean (%CV)
[4] = MAD part 3, single dose (day 3) nacubactam 2,000 mg plus meropenem 2,000 mg, geometric mean (%CV)
[5] = human, plasma, intravenous, 1000 mg, MAD part 1, 1,000 mg q8h for 7 days, day 7, n = 6, geometric mean (%CV)
[6] = human, plasma, intravenous, 2000 mg
[7] = human, plasma, intravenous, 2000 mg, MAD part 1, 2,000 mg q8h for 7 days, day 7, n = 6, geometric mean (%CV)
[8] = human, plasma, intravenous, 2000 mg, MAD part 3, single dose (day 1 or 2) nacubactam 2,000 mg alone, geometric mean (%CV)
[9] = human, plasma, intravenous, 4000 mg, MAD part 2, 4,000 mg q8h for 7 days, day 9, n = 6, geometric mean (%CV)
[10] = human, plasma, intravenous, MAD part 3, single dose (day 3) nacubactam 2,000 mg plus meropenem 2,000 mg, geometric mean (%CV)

NCCONC(=O)[C@@H]1CC[C@@H]2CN1C(=O)N2OS(=O)(=O)O [Nacubactam]
Fe%0–8h (cumulative percentage of dose excreted in urine from time zero to 8 h) ([1]; MAD part 1, 1,000 mg q8h for 7 days, day 7, n = 6, geometric mean (%CV)): 81.9 (1) % | Fe%0–8h (cumulative percentage of dose excreted in urine from time zero to 8 h) ([1]; MAD part 1, 2,000 mg q8h for 7 days, day 7, n = 6, geometric mean (%CV)): 87.0 (11) % | Fe%0–8h (cumulative percentage of dose excreted in urine from time zero to 8 h) ([1]; MAD part 2, 4,000 mg q8h for 7 days, day 9, n = 6, geometric mean (%CV)): 83.9 (9) % | Fe%0–8h (cumulative percentage of dose excreted in urine from time zero to 8 h) [1, 3]: 85.5 (13) % | Fe%0–24h (cumulative percentage of dose excreted in urine from time zero to 24 h) [1, 3]: 91.1 (10) % | Fe%0–8h (cumulative percentage of dose excreted in urine from time zero to 8 h) [1, 4]: 82.7 (12) % | Fe%0–24h (cumulative percentage of dose excreted in urine from time zero to 24 h) [1, 4]: 88.4 (11) % | accumulation in plasma ([1]; following 7 days of q8h dosing): minimal accumulation | route of elimination ([1]; following single and multiple doses): excreted largely unchanged into urine | contribution of nonrenal elimination processes on clearance ([1]; from difference between CL and CLR): < 20% | CL renal at 7 days ([1]; human, intravenous, 1000 mg, MAD part 1, 1,000 mg q8h for 7 days, day 7, n = 6, geometric mean (%CV)): 112 mL/min | CL renal at 7 days ([1]; human, intravenous, 2000 mg, MAD part 1, 2,000 mg q8h for 7 days, day 7, n = 6, geometric mean (%CV)): 104 mL/min | CL renal ([1]; human, intravenous, 2000 mg, MAD part 3, single dose (day 1 or 2) nacubactam 2,000 mg alone, geometric mean (%CV), read-out: CLR (converted)): 142 mL/min | CL renal at 7 days ([1]; human, intravenous, 4000 mg, MAD part 2, 4,000 mg q8h for 7 days, day 9, n = 6, geometric mean (%CV)): 113 mL/min | CL renal ([1]; human, intravenous, MAD part 3, single dose (day 3) nacubactam 2,000 mg plus meropenem 2,000 mg, geometric mean (%CV), read-out: CLR (converted)): 135 mL/min | CL renal ([1]; human, intravenous, single (1,000 to 8,000 mg) and multiple (1,000 to 4,000 mg) doses, read-out: estimated CLR, range): 91.7 to 142 mL/min | Cmax at 7 days [1, 5]: 36.6 µg/mL | half-life [1, 5]: 2.66 h | AUC(0-t) [1, 5]: 118 µg·h/mL | clearance ([1]; human, plasma, intravenous, 1000 mg, MAD part 1, 1,000 mg q8h for 7 days, day 7, n = 6, geometric mean (%CV), read-out: CL (converted)): 142 mL/min | Vd at 7 days ([1]; human, plasma, intravenous, 1000 mg, MAD part 1, 1,000 mg q8h for 7 days, day 7, n = 6, geometric mean (%CV), read-out: Vss): 21.9 L | Tmax at 7 days ([1]; human, plasma, intravenous, 1000 mg, MAD part 1, 1,000 mg q8h for 7 days): 1 h | AUC(0-inf) [1, 6]: 225 µg·h/mL | Cmax [1, 6]: 66 µg/mL | Tmax [1, 6]: 1 h | Cmax at 7 days [1, 7]: 89.6 µg/mL | half-life [1, 7]: 2.66 h | AUC(0-t) [1, 7]: 279 µg·h/mL | clearance ([1]; human, plasma, intravenous, 2000 mg, MAD part 1, 2,000 mg q8h for 7 days, day 7, n = 6, geometric mean (%CV), read-out: CL (converted)): 119 mL/min | Vd at 7 days ([1]; human, plasma, intravenous, 2000 mg, MAD part 1, 2,000 mg q8h for 7 days, day 7, n = 6, geometric mean (%CV), read-out: Vss): 16.5 L | half-life [1, 8]: 2.63 h | AUC(0-t) [1, 8]: 201 µg·h/mL | clearance ([1]; human, plasma, intravenous, 2000 mg, MAD part 3, single dose (day 1 or 2) nacubactam 2,000 mg alone, geometric mean (%CV), read-out: CL (converted)): 148 mL/min | Tmax at 7 days ([1]; human, plasma, intravenous, 2000 mg, MAD part 1, 2,000 mg q8h for 7 days): 1.33 h | Vd ([1]; human, plasma, intravenous, 2000 mg, read-out: Vss): 26.2 L | Cmax at 7 days [1, 9]: 179 µg/mL | half-life [1, 9]: 2.69 h | AUC(0-t) [1, 9]: 496 µg·h/mL | clearance ([1]; human, plasma, intravenous, 4000 mg, MAD part 2, 4,000 mg q8h for 7 days, day 9, n = 6, geometric mean (%CV), read-out: CL (converted)): 134 mL/min | Vd at 7 days ([1]; human, plasma, intravenous, 4000 mg, MAD part 2, 4,000 mg q8h for 7 days, day 9, n = 6, geometric mean (%CV), read-out: Vss): 20.1 L | half-life [1, 10]: 2.38 h | AUC(0-t) [1, 10]: 204 µg·h/mL | clearance ([1]; human, plasma, intravenous, MAD part 3, single dose (day 3) nacubactam 2,000 mg plus meropenem 2,000 mg, geometric mean (%CV), read-out: CL (converted)): 149 mL/min | clearance ([1]; human, plasma, intravenous, single (1,000 to 8,000 mg) and multiple (1,000 to 4,000 mg) doses, read-out: estimated CL, range on average): 120 to 148 mL/min | fraction unbound [2]: 0.98 | protein binding [2]: 2%
